According to patent publication US6579900B2, “Anandamide amidase inhibitors as analgesic agents” (priority 1996, dated 2003):
Like-named read-outs stand apart in the source and are kept apart here.

Key:
anandamide amidase [1] = biological target: T1, anandamide amidase (Rattus norvegicus, UniProt P97612); test: Anandamide amidase assay in vitro, crude rat brain homogenate; format: biochemical
T1 construct: Crude rat brain homogenate was obtained by decapitating female adult Sprague-Dawley rats, dissecting the desired tissue and homogenizing; from tissue; host or cells: crude brain homogenate of female adult Sprague-Dawley rats
T1 sequence (P97612 1-579): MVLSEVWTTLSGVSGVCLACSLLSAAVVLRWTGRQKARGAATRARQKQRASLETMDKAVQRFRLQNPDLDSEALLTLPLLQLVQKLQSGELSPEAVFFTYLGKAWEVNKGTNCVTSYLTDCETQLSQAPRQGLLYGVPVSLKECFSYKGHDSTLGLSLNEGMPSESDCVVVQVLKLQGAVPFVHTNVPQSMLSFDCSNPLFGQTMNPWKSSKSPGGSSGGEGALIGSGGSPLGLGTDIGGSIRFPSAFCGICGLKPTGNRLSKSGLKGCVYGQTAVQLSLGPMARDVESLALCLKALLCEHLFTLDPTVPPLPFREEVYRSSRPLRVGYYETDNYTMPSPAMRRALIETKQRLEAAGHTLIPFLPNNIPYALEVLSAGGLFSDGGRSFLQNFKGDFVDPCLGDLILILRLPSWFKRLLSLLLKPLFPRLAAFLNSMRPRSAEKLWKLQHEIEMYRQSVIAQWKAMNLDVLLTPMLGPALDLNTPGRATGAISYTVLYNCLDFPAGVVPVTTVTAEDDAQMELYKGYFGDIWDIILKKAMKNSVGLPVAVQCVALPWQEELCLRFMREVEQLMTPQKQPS
Method: The assay of the anandamide amidase in vitro was performed as described previously (Deutsch, D. G. and S. A. Chin, Biochem. Pharmacol. 46:791-796 (1993)). The indicated amount of each compound was preincubated in a buffer consisting of 300 μg of crude rat brain homogenate protein, 500 μg/ml fatty acid-free bovine serum albumin, in phosphate-buffered saline in a final volume of 1.0 ml, for 10 minutes at 37° C. Crude rat brain homogenate was obtained by decapitating female adult Sprague-Dawley rats, dissecting the desired tissue and homogenizing in five volumes of ice-cold TE (10 mM Tris-HCl, 1 mM EDTA, pH 7.6). Substrate (27.7 μM anandamide+0.2 μCi of 221 Ci/mmol [^3H]anandamide ([arachidonyl-5,6,8,9,11,12,14,15-^3H]ethanolamide)) (obtained from the National Institute on Drug Abuse) was then added and the samples incubated for 10 minutes. The reaction was quenched by the addition of chloroform:methanol (1:1) and enzyme activity was analyzed by TLC as described in Example 1.

anandamide amidase [2] = biological target: T2, anandamide amidase (Mus musculus, UniProt O08914); test: Anandamide amidase assay in intact neuroblastoma cells ([3H]anandamide levels); format: cell-based
T2 construct: The assay of the anandamide amidase in intact neuroblastoma cells; endogenous in cells; host or cells: N18TG2 neuroblastoma cells
T2 sequence (O08914 1-579): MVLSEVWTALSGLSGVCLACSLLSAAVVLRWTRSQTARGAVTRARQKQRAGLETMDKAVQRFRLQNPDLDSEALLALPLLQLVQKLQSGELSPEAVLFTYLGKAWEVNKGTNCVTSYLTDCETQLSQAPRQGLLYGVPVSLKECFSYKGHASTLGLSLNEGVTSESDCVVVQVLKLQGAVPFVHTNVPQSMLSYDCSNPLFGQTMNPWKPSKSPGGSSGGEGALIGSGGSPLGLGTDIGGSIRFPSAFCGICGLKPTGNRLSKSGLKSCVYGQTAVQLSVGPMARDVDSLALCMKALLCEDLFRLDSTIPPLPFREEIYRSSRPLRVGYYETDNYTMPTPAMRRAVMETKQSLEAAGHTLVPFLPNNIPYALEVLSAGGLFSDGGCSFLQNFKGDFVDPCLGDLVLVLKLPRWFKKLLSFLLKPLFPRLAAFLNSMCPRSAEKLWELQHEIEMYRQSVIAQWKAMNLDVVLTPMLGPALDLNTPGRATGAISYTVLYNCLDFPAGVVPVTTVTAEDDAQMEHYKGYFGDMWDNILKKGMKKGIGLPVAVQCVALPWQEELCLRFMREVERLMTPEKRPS
Method: The experiments were performed with 4×10^6 neuroblastoma cells (N18TG2)/6-cm dish. Experimental cells were incubated in 2 ml of media, consisting of Ham's F-12/Dulbecco's modified Eagle's medium (Life Technologies, Inc.) with penicillin, streptomycin, and gentamicin plus 10% bovine calf serum (HyClone, Logan, Utah), plus the indicated concentration of inhibitor for 20 minutes. All cells were grown at 37° in a humidified atmosphere containing 5% CO2 in air. [^3H]Anandamide (0.2 μCi of 221 Ci/mmol of [^3H]anandamide) was added and the incubation continued for 1 hour. Control cells contained no inhibitor. At the end of the incubation, the cells were washed once with cell culture media and removed from the plates, after a brief incubation with 2 ml of 0.05% trypsin in 0.53 mM EDTA solution at 37° C. The amounts of [^3H]anandamide, [^3H]phospholipids, and [^3H]arachidonate in the cells and media were quantified by liquid scintillation counting of the silica scraped from the appropriate areas of the plate after quenching the reaction with chloroform methanol (1:1), extraction of the sample from the organic phase, and TLC analysis on channeled silica gel-coated plates, with a solvent system consisting of the organic layer of an ethyl acetate:hexane:acetic acid:water (100:50:20:100) mixture.

male MF1 mice = test: Tail flick test of analgesia ("rat flick test"); conditions: mouse, in vivo
CB1 receptor = biological target: T3, CB1 receptor (Rattus norvegicus, UniProt P20272); conditions: rat brain membranes, FIG. 3; read-out: Ki in competition with [3H]CP-55940 binding to CB1
T3 construct: brain membranes were prepared from frozen rat brains; from tissue; host or cells: membranes from frozen rat brains
Method: The filters were treated with 0.1% sodium dodecyl sulfate prior to addition of scintillation mixture and counting in a liquid scintillation counter.

[3] = crude rat brain homogenate, 10 min preincubation at 37° C., read-out: IC50 for inhibition of anandamide amidase

T3 sequence (P20272 whole entry): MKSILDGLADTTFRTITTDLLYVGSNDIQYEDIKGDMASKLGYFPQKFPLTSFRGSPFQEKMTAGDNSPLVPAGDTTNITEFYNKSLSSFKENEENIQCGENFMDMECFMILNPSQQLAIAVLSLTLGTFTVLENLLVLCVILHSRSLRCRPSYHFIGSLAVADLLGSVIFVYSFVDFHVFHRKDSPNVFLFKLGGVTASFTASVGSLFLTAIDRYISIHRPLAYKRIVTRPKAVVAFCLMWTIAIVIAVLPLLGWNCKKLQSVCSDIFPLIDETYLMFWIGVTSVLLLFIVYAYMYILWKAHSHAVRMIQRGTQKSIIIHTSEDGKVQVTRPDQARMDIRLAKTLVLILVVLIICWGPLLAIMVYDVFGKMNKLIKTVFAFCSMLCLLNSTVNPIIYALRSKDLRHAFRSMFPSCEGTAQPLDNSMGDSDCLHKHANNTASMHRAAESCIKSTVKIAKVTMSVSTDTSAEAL

## CCCCCCCCCCCCS(=O)(=O)F [laurylsulfonyl fluoride]
Anandamide amidase [1]; [3]
  IC50: < 10 nM

## CCCCCCCCCCCCCCCCS(=O)(=O)F [palmitylsulfonyl fluoride]
Anandamide amidase [1]
  IC50: < 10 nM
Anandamide amidase [2]; 10 nM inhibitor, intact neuroblastoma cells (N18TG2)
  increase of the level of undegraded anandamide: 55 fold
Male MF1 mice
  analgesia (in words): induce analgesia

## arachidonyl trifluoromethyl ketone
CB1 receptor
  Ki: 1320 nM

## CCCCCCCCCCCCCCCCCCS(=O)(=O)F [stearylsulfonyl fluoride]
Anandamide amidase [1]; [3]
  IC50: < 10 nM

## CCCCCCCCCCCCCCS(=O)(=O)F [myristylsulfonyl fluoride]
Anandamide amidase [1]; [3]
  IC50: < 10 nM

## CCCCCCCCCCCCCCCCCCCCS(=O)(=O)F [Arachidylsulfonyl fluoride, arachidylsulfonyl fluoride]
Anandamide amidase [1]; crude rat brain homogenate
  concentration at which effective inhibitor of anandamide amidase: less than 100 nM

## O=S(=O)(F)Cc1ccccc1 [phenylmethylsulfonyl fluoride, reference compound]
Anandamide amidase [2]; comparable to over 50% of radioactivity in anandamide, N18TG2 cells
  concentration required to achieve comparable levels of anandamide amidase inhibition: greater than 10 micromolar
